Reference: patent publication US20260078108A1, “SOLID FORMS OF A ROCK INHIBITOR” (REDX PHARMA PLC, priority 2022, published 2026)

Key:
MAO-A = target: T1, MAO-A (Rattus norvegicus, UniProt P21396); experiment: CEREP panel MAO-A (antagonist radioligand); type: binding; settings: HCl salt tested
T1 sequence (P21396 1-526): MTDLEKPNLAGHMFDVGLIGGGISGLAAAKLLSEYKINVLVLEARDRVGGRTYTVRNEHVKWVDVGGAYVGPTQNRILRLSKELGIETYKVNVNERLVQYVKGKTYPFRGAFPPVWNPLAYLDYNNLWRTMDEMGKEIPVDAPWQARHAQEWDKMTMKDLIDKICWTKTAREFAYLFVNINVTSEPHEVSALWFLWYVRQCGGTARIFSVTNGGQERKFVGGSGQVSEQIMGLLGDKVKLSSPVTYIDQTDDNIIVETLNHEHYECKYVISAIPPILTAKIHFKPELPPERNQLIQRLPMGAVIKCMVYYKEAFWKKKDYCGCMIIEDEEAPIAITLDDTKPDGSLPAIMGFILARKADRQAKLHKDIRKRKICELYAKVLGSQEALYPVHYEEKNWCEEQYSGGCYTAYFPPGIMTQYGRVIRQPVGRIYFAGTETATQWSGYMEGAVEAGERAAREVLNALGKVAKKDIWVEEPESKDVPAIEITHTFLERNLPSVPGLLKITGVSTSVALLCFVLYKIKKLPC
Text: The use of in vitro pharmacological screening against a diverse range of targets (receptors, ion channels, enzymes and transporters) is used to identify undesirable off-target activity that may cause adverse drug reactions in humans. Screening panels (e.g. SafetyScreen44™ Panel, Eurofins) comprise a selection of off-targets linked with known issues in humans that could hinder or halt the development of drug candidates or market withdrawal if discovered after a drug is approved. The HCl salts of the S enantiomer and the R enantiomer of compound A were tested against a panel of such targets.
The tests were carried out according to the methods described in the following tables and indicated literature references.

LATS2 = target: T2, LATS2 (Homo sapiens, UniProt Q9NRM7); experiment: Kinase panel 33P-ATP filter assay, LATS2; type: biochemical; settings: HCl salt tested; ATP Conc. 30 μM (Km); read-out: Compound IC50 (nM) LATS2
T2 sequence (Q9NRM7 1-1088): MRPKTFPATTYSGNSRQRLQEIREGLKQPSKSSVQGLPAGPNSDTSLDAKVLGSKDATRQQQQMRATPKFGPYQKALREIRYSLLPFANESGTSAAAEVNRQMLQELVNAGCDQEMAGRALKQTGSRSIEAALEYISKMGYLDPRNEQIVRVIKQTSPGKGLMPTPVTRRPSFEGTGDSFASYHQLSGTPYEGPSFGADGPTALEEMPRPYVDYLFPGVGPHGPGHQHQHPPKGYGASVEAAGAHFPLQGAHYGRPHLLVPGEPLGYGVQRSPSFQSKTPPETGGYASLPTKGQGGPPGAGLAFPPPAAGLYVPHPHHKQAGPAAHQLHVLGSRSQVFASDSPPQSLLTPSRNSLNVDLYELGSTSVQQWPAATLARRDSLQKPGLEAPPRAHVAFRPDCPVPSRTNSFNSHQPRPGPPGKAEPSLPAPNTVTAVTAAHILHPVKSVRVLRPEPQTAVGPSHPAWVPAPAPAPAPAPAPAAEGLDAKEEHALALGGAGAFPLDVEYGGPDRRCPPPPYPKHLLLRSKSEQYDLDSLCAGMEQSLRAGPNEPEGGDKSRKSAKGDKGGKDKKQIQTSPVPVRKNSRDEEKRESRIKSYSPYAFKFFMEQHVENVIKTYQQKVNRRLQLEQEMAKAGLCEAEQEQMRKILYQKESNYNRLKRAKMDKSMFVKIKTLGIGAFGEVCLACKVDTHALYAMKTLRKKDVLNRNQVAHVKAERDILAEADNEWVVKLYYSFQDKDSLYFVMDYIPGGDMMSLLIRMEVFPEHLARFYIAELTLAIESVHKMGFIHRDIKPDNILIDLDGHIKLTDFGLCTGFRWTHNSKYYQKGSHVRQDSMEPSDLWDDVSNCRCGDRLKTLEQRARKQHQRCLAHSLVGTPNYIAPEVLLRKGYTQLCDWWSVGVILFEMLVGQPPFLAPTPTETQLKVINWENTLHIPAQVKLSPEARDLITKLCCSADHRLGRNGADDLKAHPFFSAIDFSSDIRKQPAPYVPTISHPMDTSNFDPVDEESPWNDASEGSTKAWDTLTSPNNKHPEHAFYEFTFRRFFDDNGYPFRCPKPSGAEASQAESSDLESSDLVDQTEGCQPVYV
Protocol: (§1) The HCl salts of S enantiomer and the R enantiomer of compound A were tested against a panel of kinases.
(§2) Compounds were received as powder and resuspended to 10 mM DMSO stock. Compounds were tested in 10-dose IC50 mode with a 3-fold serial dilution starting at 10 μM. Control compound, staurosporine, was tested in 10-dose IC50 mode with 4-fold serial dilution starting at 20 μM.
(§3) Reaction Conditions: Buffer Conditions: 20 mM HEPES ((4-(2-hydroxyethyl)-1-piperazineethanesulfonic acid; pH 7.5), 10 mM MgCl2, 1 mM EGTA (Ethyleneglycol-bis(p-aminoethyl)-N,N,N′,N′-tetraacetic Acid), 0.01% Brij35, 0.02 mg/ml BSA (Bovine serum albumin), 0.1 mM Na3VO4, 2 mM DTT (Dithiothreitol), 1% DMSO. Reaction Procedure: 1. Prepare indicated substrate in freshly prepared reaction buffer. 2. Deliver required cofactors to the substrate solution above. 3. Deliver indicated kinase into the substrate solution and mix gently. 4. Deliver compounds in DMSO into the kinase reaction mixture utilizing acoustic technology (Echo550). 5. Deliver ^33P-ATP (specific activity 0.01 μCi/μl final) into the reaction mixture to initiate the reaction. 6. Incubate kinase reaction for 120 minutes at room temperature. 7. […] Data Analysis: Kinase activity data were expressed as the percent remaining kinase activity in test samples compared to vehicle (dimethyl sulfoxide) reactions. […]

PKCeta = PKCeta (Homo sapiens, UniProt P24723); experiment: Kinase panel 33P-ATP filter assay, PKCeta; type: biochemical; settings: HCl salt tested; ATP Conc. 15 μM (Km); read-out: Compound IC50 (nM) PKCeta
Protocol: as §1, §2, §3

PKCeta, sequence (P24723 whole entry): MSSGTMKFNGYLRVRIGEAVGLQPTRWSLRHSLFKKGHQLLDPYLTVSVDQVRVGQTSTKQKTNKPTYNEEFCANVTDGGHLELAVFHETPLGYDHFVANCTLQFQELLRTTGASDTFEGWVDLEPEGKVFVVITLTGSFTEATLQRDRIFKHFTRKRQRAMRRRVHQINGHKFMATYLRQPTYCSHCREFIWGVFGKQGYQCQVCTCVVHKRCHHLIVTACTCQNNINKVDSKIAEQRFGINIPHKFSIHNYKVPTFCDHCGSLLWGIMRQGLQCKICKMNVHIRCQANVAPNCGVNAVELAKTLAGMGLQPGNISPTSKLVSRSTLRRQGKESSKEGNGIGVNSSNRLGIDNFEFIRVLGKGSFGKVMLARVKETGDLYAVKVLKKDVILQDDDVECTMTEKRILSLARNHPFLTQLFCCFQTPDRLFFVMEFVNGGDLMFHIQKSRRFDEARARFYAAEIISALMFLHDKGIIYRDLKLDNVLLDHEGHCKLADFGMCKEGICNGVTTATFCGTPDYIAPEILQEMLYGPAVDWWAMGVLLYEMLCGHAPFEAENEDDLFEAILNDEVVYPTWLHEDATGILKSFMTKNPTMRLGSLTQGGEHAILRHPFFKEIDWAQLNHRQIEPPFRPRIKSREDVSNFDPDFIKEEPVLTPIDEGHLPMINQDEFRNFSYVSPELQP

IC50 (MAO-A)	IC50 (LATS2)	IC50 (PKCeta)	Structure (SMILES)
820 nM	33.3 nM	0.9 nM	NCc1ccc(C(=O)Nc2ccncc2F)cc1-c1cccc(C(=O)Nc2ccc(SC[C@H]3CCOC3=O)cc2)c1 [S-enantiomer]
4300 nM	42.7 nM	< 0.5 nM	NCc1ccc(C(=O)Nc2ccncc2F)cc1-c1cccc(C(=O)Nc2ccc(SC[C@@H]3CCOC3=O)cc2)c1 [R-enantiomer]
